Patent publication US9925227B2, “Composition for treating obesity and method of using the same” (POLIFENOLES NATURALES S.L., priority 2006, dated 2018)

Experiment: Energy expenditure by indirect calorimetry, dose-response clinical trial
Assay type: in vivo, human
Settings: for Energy Expenditure: obese non-diabetic females with NAFLD; for Total Energy Expenditure, From (start value): baseline; for Total Energy Expenditure, to (end value): end of trial
Excerpt: Obese subjects diagnosed with NAFLD and with apparently healthy liver (HL) were matched in pairs based on age, body weight and body fat mass and were randomly divided into Experimental NAFLD group (n=36), Placebo NAFLD (n=36), Experimental HL (n=19) and Placebo-HL group (n=19). Subjects were randomly assigned, in equal numbers, to the phytomedicine experimental groups and the Placebo control group, using the Simple Randomization Procedure. Their daily dietary intake was restricted to 1800±100 kcals, of which 50±5% was in the form of carbohydrates, 30±5% from protein, and 20±5% from fat. Subjects were also instructed to consume all the foods and beverages designated by dieticians and provided by the Institute, and to eat no other food or high calories beverages. Patients were directed to take Experimental Sample and/or Placebo three times a day before meals. During the clinical phase, subjects were required to visit a designated hospital three times a week for physiological and biochemical analysis. Institute provided all foods and beverages by designated dieticians and labeled as B, L, and D for breakfast, lunch and dinner, respectively.
Measurements of Fat Oxidation by Indirect Calorimetry
Energy expenditure (EE) and substrate oxidations were measured by indirect calorimetry as described previously (Ranneries et al., 1998). Oxygen was measured with an electrochemical oxygen sensor, and carbon dioxide was measured by an infrared carbon dioxide sensor (Ametec Carbon Dioxide Analyzer). Calculations of EE and substrate oxidation rates were performed as previously described (Astrup et al., 1991). Protein oxidation was assumed to be constant and amounting to 15% of EE. The error of calculating EE by omitting the exact correction from urinary nitrogen was negligible and impossible to estimate during such a short period of time. The reliability was assessed by the coefficient of variation on resting energy expenditure repeated every week.
This effect was clearly dose-dependent phenomenon. […] Based on our dose-response trial, the optimum dose of Experimental Sample was established as 600 mg per day, which was used in further clinical trials.

Fucoxanthin
increase in daily energy expenditure rate (25 mg fucoxanthin alone): 1152 ± 290 kJ/day | Energy Expenditure (Fucoxanthin 10 mg per day, 2 weeks): 5.69 ± 0.21 kJ/min | Energy Expenditure (Fucoxanthin 10 mg per day, 5 weeks): 5.93 ± 0.15 kJ/min | Energy Expenditure (Fucoxanthin 10 mg per day, 10 weeks): 5.69 ± 0.21 kJ/min | Energy Expenditure (Fucoxanthin 10 mg per day, 16 weeks): 5.98 ± 0.18 kJ/min | Energy Expenditure (Fucoxanthin 10 mg per day, Baseline): 5.82 ± 0.18 kJ/min | Total Energy Expenditure, From (start value) (Fucoxanthin 10 mg per day): 8381 kJ/24 h | Total Energy Expenditure, to (end value) (Fucoxanthin 10 mg per day): 8611 kJ/24 h | Change in Total Energy Expenditure, Net (Fucoxanthin 10 mg per day, p < NS vs placebo): Net 230 ± 147 kJ/24 h | Energy Expenditure (Fucoxanthin 15 mg per day, 2 weeks): 5.89 ± 0.14 kJ/min | Energy Expenditure (Fucoxanthin 15 mg per day, 5 weeks): 5.98 ± 0.17 kJ/min | Energy Expenditure (Fucoxanthin 15 mg per day, 10 weeks): 6.11 ± 0.21 kJ/min | Energy Expenditure (Fucoxanthin 15 mg per day, 16 weeks): 6.39 ± 0.17 kJ/min | Energy Expenditure (Fucoxanthin 15 mg per day, Baseline): 5.85 ± 0.27 kJ/min | Total Energy Expenditure, From (start value) (Fucoxanthin 15 mg per day): 8424 kJ/24 h | Total Energy Expenditure, to (end value) (Fucoxanthin 15 mg per day): 9202 kJ/24 h | Change in Total Energy Expenditure, Net (Fucoxanthin 15 mg per day, p < 0.05 vs placebo): Net 778 ± 260 kJ/24 h | Energy Expenditure (Fucoxanthin 25 mg per day, 2 weeks): 6.02 ± 0.23 kJ/min | Energy Expenditure (Fucoxanthin 25 mg per day, 5 weeks): 5.92 ± 0.27 kJ/min | Energy Expenditure (Fucoxanthin 25 mg per day, 10 weeks): 6.29 ± 0.31 kJ/min | Energy Expenditure (Fucoxanthin 25 mg per day, 16 weeks): 6.72 ± 0.22 kJ/min | Energy Expenditure (Fucoxanthin 25 mg per day, Baseline): 5.92 ± 0.16 kJ/min | Total Energy Expenditure, From (start value) (Fucoxanthin 25 mg per day): 8525 kJ/24 h | Total Energy Expenditure, to (end value) (Fucoxanthin 25 mg per day): 9677 kJ/24 h | Change in Total Energy Expenditure, Net (Fucoxanthin 25 mg per day, p < 0.05 vs placebo): Net 1152 ± 290 kJ/24 h | Energy Expenditure (Fucoxanthin 50 mg per day, 2 weeks): 5.91 ± 0.31 kJ/min | Energy Expenditure (Fucoxanthin 50 mg per day, 5 weeks): 6.32 ± 0.22 kJ/min | Energy Expenditure (Fucoxanthin 50 mg per day, 10 weeks): 6.92 ± 0.31 kJ/min | Energy Expenditure (Fucoxanthin 50 mg per day, 16 weeks): 7.37 ± 0.35 kJ/min | Energy Expenditure (Fucoxanthin 50 mg per day, Baseline): 6.04 ± 0.24 kJ/min | Total Energy Expenditure, to (end value) (Fucoxanthin 50 mg per day): 10613, kJ/24 h | Change in Total Energy Expenditure, Net (Fucoxanthin 50 mg per day, p < 0.001 vs placebo): Net 1915 ± 246 kJ/24 h
